# Test results taken from PMC11617253, “Gene expansion in the hawkmoth Manduca sexta drives evolution of food-associated odorant receptors” (iScience, 2024).
# Assays:
# Assay in all cases: single sensillum recording, Drosophila empty neuron (ab3A)
# Format in all cases: cell-based
# MsexOR33 = target: T1, MsexOR33 (Manduca sexta, UniProt A0A0P1J430); conditions: odor dilutions 10^-7 to 10^-2 v/v on filter paper, 500 ms pulse
# T1 construct: gene OR-33; full-length CDS from antennal RNA, UAS transgene (pUASTattB) in D. melanogaster ab3A empty neuron (delta-halo; DmelOr22a-Gal4); partner is endogenous fly Orco; with Odorant receptor coreceptor (Drosophila melanogaster, endogenous to the ab3A neuron)
# MsexOR8 = target: T2, MsexOR8 (Manduca sexta, UniProt A0A0P1IW06); conditions: odor dilutions 10^-7 to 10^-2 v/v on filter paper, 500 ms pulse
# T2 construct: gene OR-8; full-length CDS from antennal RNA, UAS transgene (pUASTattB) in D. melanogaster ab3A empty neuron (delta-halo; DmelOr22a-Gal4); partner is endogenous fly Orco; with Odorant receptor coreceptor (Drosophila melanogaster, endogenous to the ab3A neuron)
# T2 sequence (A0A0P1IW06 1-407): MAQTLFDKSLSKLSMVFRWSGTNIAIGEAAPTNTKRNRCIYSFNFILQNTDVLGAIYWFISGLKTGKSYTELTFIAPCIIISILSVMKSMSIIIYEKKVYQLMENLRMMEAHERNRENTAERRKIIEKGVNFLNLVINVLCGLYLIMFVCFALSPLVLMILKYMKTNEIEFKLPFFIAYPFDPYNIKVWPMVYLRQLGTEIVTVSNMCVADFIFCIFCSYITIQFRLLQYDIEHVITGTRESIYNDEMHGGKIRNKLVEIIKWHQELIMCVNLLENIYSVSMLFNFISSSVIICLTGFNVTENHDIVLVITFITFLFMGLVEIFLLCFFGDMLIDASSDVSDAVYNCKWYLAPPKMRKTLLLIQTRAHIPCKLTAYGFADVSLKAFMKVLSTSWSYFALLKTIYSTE
# T2 sequence (Q9VNB5 1-486 partner): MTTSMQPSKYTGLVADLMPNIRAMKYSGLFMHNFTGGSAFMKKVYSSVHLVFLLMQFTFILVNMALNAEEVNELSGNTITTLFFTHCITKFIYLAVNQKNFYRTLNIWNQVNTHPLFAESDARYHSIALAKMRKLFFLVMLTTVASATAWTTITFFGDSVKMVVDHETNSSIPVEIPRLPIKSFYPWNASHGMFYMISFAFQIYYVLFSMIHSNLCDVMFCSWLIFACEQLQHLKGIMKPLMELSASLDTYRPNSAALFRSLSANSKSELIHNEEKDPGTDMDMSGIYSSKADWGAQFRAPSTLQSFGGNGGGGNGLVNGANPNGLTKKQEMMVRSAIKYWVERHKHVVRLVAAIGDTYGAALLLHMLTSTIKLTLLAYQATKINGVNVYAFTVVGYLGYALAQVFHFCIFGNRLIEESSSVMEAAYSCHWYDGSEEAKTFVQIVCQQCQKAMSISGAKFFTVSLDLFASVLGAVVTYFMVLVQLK
# MsexOR36 = target: T3, MsexOR36 (Manduca sexta, UniProt A0A0P1IVT0); conditions: odor dilution 10^-2 v/v on filter paper, 500 ms pulse
# T3 construct: gene OR-36; full-length CDS (407 aa) from antennal RNA, UAS transgene (pUASTattB) in D. melanogaster ab3A empty neuron (delta-halo; DmelOr22a-Gal4); partner is endogenous fly Orco; with Odorant receptor coreceptor (Drosophila melanogaster, endogenous to the ab3A neuron)
# T3 sequence (A0A0P1IVT0 1-407): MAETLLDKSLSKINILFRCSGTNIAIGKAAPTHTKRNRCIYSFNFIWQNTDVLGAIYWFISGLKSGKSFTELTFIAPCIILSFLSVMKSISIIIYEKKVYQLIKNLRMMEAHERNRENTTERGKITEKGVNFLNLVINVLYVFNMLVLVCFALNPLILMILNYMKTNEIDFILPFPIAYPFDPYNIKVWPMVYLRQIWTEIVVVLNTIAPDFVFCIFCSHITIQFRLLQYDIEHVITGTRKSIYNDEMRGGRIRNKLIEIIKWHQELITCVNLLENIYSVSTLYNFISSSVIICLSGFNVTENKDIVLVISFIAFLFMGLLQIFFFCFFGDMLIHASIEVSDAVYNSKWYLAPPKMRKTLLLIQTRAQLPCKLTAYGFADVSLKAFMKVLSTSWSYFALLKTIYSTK
# T3 sequence (Q9VNB5 1-486 partner): T2 sequence (Q9VNB5 1-486 partner)
# T1 sequence (A0A0P1J430 entry or part of it, one chain of several): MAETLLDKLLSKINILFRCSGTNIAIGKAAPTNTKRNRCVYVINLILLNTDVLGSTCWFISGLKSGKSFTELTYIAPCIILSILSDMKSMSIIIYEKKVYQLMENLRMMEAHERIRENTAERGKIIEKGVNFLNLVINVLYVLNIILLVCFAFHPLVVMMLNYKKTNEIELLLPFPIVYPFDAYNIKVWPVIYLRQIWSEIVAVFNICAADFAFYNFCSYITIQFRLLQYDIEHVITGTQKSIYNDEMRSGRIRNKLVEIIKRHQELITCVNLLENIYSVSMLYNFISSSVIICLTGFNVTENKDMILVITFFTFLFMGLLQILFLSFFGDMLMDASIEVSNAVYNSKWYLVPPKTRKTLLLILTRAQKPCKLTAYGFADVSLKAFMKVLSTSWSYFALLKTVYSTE
compound,measurement,setting,value
CCCCCCCCC=O [nonanal],"single sensillum recording, Drosophila empty neuron (ab3A)",MsexOR33,each responding to only one odorant: MsexOR33 (nonanal) and MsexOR8 (propyl valerate)
CCCCC(=O)OCCC [propyl valerate],"single sensillum recording, Drosophila empty neuron (ab3A)",MsexOR8,each responding to only one odorant: MsexOR33 (nonanal) and MsexOR8 (propyl valerate)
C=CC(C)=CCC=C(C)C [β-ocimene],"single sensillum recording, Drosophila empty neuron (ab3A)",MsexOR36,"β-ocimene, which was detected only by MsexOR36"
